US20190183927A1, “MEDICAL AND NUTRITIONAL COMPOSITIONS AND METHODS OF USE” (Sulfilatec, Inc., priority 2016, published 2019)
“Also recorded” adds a separate entry of the source.

What was measured:
salt sensitive Dahl rats [1] = assay: Survival of salt sensitive Dahl rats on high salt (8% NaCl) diet with or without NaBr, 10 week study; format: in vivo, rat
Procedure: Control rats received AIN76A without supplemental chloride or bromide. 9 rats per study arm.
Dahl rats were administered a base diet of AIN76A with 8% NaCl, while a parallel arm was administered AIN76A with 8% NaCl and 300 mg of NaBr per kg of food. Mortality events were counted over the 10 week study.

[2] = test system: spontaneously hypertensive rat (SHR); assay: 10 week daily dietary Br^− administration in SHR disease model (heart weight, survival, urinary protein); format: in vivo
Procedure: (FIG. 5 A-B) Heart and kidney weights from 10 week repeat dosing study in SHR model. Br^− administered daily via diet, with AIN-76a as base diet. WKY served as genetic control. Both kidneys per animal weighed together. […] (FIG. 5C-D) Heart and kidney weights from panels A-B normalized to body weight. […] (FIG. 5E) Rats were administered a diet of AIN76A with or without 10 mg NaBr per kg feed (“SHR” and “SHR+Br” study arms, […]). Survival probability was calculated between SHR rats receiving dietary Br— and SHR rats receiving AIN76A control diet over a 10 week study period. As a second control, Wistar Kyoto (WKY) rats were fed AIN76A control diet over the same period. 8 rats per study arm.
Eight SHR animals received AIN76A diet for 10 weeks while 8 SHR animals received AIN76A supplemented with 10 mg NaBr/kg diet.

[3] = test system: spontaneously hypertensive rat (SHR); assay: Cardiac interstitial fibrosis, Masson's Trichrome staining, SHR; format: in vivo; conditions: 10 mg NaBr per kg AIN-76a, 10 weeks, p<0.0001
Procedure: (§1) AIN-76A was base diet for all animals. […] Fibrosis determined from 5 μm tissue sections stained with Masson's Trichrome. […] Approximately 25-30 images were collected and processed per animal.
Following conclusion of the in vivo study, rat hearts were formalin-fixed, paraffin-embedded, and 5 μm-thick sections were obtained for histochemical analysis.

salt sensitive Dahl rats [4] = assay: Cardiac interstitial fibrosis, Masson's Trichrome staining, Dahl rats on high salt diet; format: in vivo, rat; conditions: 300 mg NaBr per kg AIN-76a+8% NaCl, 10 weeks, p<0.0001
Procedure: as §1

[5] = test system: spontaneously hypertensive rat (SHR); assay: Blood pressure and heart rate (tail cuff) after single IP administration of NaBr in SHR; format: in vivo; conditions: single IP 154.5 μg NaBr per kg
Procedure: (A) In 10 week-old male SHR, single administration of Br^− reduced systolic and diastolic blood pressures compared to saline control. […] (C-D) Measured values for systolic (C) and diastolic (D) blood pressure, denoting statistical significance where achieved. 154.5 μg NaBr per kg rat body weight injected via IP. n=8 in Br Treatment group, =5 in saline control. BP & HR measured via tail cuff. *:p<0.05, T test.
(§2) The inventors next asked whether Br^− exerts any short-term activity in addition to the improved cardiac fibrosis noted after 10 weeks administration. Returning to the SHR preclinical model of disease, the inventors specifically asked whether Br^− administration modulates certain biomarkers associated with cardiovascular disease at one day post-administration. To this end, Br^− was administered to 8 SHR via intraperitoneal (IP) injection with an estimated 0.154 μg NaBr per gram body weight. For control, 8 SHR were administered saline via IP injection containing an estimated 4 ng NaBr per gram body weight. […] Moreover, the inventors believe that Br^− achieves its cardiovascular and renal therapeutic activities in part via modulation of natriuretic peptide signaling.

[6] = test system: brain natriuretic peptide (BNP); assay: Serum BNP by ELISA after single IP administration of NaBr in SHR; format: in vivo, rat; conditions: single IP 154.5 μg NaBr per kg, one day post-administration, p<0.05
Procedure: 154.5 μg NaBr per kg rat body weight injected via IP. n=8 in Br Treatment group, =5 in saline control. Baseline serum collection occurred two days prior to treatment. *: p<0.05, T test.
as §2

[7] = in vivo; cited from earlier work
[8] = dogs that do not respond to an initial course of Br^− treatment; cited from earlier work
[9] = humans, in some circumstances, due to renal reabsorption; cited from earlier work
[10] = Serum Br^− concentration in Dahl rats after 10 weeks on diet (mass spectrometry)
Procedure: (FIG. 2A) Serum Br^− concentrations from rats fed a daily diet over 10 weeks of “AIN-76A”, “AIN-76A+8% NaCl”, “AIN-76A+Br”, or “AIN-76A+8% NaCl+Br”. […] The two diets containing 8% NaCl (eg. “AIN-76A+8% NaCl” and “AIN-76A+8% NaCl+Br”) were fed to Dahl rats while the remaining two diets (eg. “AIN-76A” and “AIN-76A+Br”) were fed to SHR, as indicated in panel A. Serum Br^− measurements were determined using mass spectrometry.
Thus, Dahl rats were fed a diet supplemented with 8% NaCl (AIN76A base diet) over the course of 10 weeks.
To test the invention, another group of Dahl rats were administered AIN76A supplemented with 8% NaCl and 300 mg NaBr per kg of food. Considering that the rat body weights increased from around 300 g to around 400 g over the course of the study, and assuming that the rats ate a relatively constant amount of 25 g of food per day, the daily consumption of Br^− ranged from approximately 14.6 to 19.4 mg Br^− per kg body weight, in accordance with the invention.

[11] = Serum Br^− concentration in spontaneously hypertensive rats (SHR) after 10 weeks on diet, safety
Procedure: (FIG. 2A) Serum Br^− concentrations from rats fed a daily diet over 10 weeks of “AIN-76A”, “AIN-76A+8% NaCl”, “AIN-76A+Br”, or “AIN-76A+8% NaCl+Br”. Salt sensitive Dahl rats as well as Spontaneously Hypertensive Rats (SHR) were used in these studies. The two diets containing 8% NaCl (eg. “AIN-76A+8% NaCl” and “AIN-76A+8% NaCl+Br”) were fed to Dahl rats while the remaining two diets (eg. “AIN-76A” and “AIN-76A+Br”) were fed to SHR, as indicated in panel A. Serum Br^− measurements were determined using mass spectrometry.
Rats were administered 10 mg of NaBr per kg of AIN76A diet for 10 weeks. At the end of the study, serum Br^− levels in Br-treated rats were compared to serum Br^− levels in SHR on AIN76A as well as Wistar rats on AIN76A.

[12] = test system: acute heart failure patients; conditions: cited from earlier work
[13] = acute decompensated heart failure (Sackner-Bernstein et al. 2005)

Molecule: [Br-].[Na+] [Br^−, sodium bromide]
- survival compared to High Salt alone (log rank test) (salt sensitive Dahl rats [1]; 9 rats per arm, p<0.001): significantly improved survival
- survival probability (salt sensitive Dahl rats [1]; AIN76A+8% NaCl with or without 300 mg NaBr per kg feed, 10 weeks): 67%
- heart weight (absolute) ([2]; 10 mg NaBr per kg AIN-76a, 10 weeks, vs SHR on AIN-76a alone, p<0.05): significantly reduced; also recorded: Statistically significant reduction
- treatment-induced mortality or electrolyte disturbances ([2]; 10 mg NaBr/kg diet, 10 weeks): No treatment-induced mortality or electrolyte disturbances
- survival probability among groups ([2]; 10 week study, 8 rats per arm): no statistical difference in survival
- heart weight normalized to body weight ([2]; 10 weeks): this trend was preserved; also recorded: Trends observed in absolute weights are preserved
- urinary microprotein/creatinine ratio (urinary protein levels) ([2]; after one day on study diet, persisted to end of study): significantly lower; also recorded: significantly reduced
- cardiac fibrosis (Masson's Trichrome blue staining) [3]: dramatic reduction in blue staining; also recorded: less cardiac fibrosis
- cardiac fibrosis (Masson's Trichrome blue staining) (salt sensitive Dahl rats [4]): less cardiac fibrosis
- systolic blood pressure ([5]; one day post-administration, vs saline control): statistically significant reductions; also recorded: reduced
- heart rate ([5]; p=0.052): possible reduction
- diastolic blood pressure ([5]; vs saline control): reduced
- serum concentration of BNP peptide [6]: statistically significant increase; also recorded: significantly modulated
- circulating Br^− level at which the anti-epilepsy effect occurs [7]: > 6 mM
- therapeutic serum Br^− for sedative effect [8]: above 25 mM
- half-life [9]: ≥ 170 h
- mean serum Br^− ([10]; 10 weeks on diet, end of study): 246.50 µM
- toxicity assessment of serum Br^− concentrations ([10]; daily diet over 10 weeks): well below those levels required to induce bromide-associated toxicity
- mean serum Br^− ([11]; 10 mg NaBr per kg AIN76A diet, 10 weeks): 281.7 µM
- toxicity assessment of serum Br^− concentrations ([11]; daily diet over 10 weeks): below the toxicity threshold

Molecule: CC[C@H](C)[C@@H]1NC(=O)[C@H](CCCNC(=N)N)NC(=O)[C@H](CC(=O)O)NC(=O)[C@H](CCSC)NC(=O)[C@H](CCCNC(=N)N)NC(=O)CNC(=O)CNC(=O)[C@H](Cc2ccccc2)NC(=O)[C@@H](NC(=O)[C@H](CO)NC(=O)[C@H](CO)NC(=O)[C@H](CCCNC(=N)N)NC(=O)[C@H](CCCNC(=N)N)NC(=O)[C@H](CC(C)C)NC(=O)[C@@H](N)CO)CSSC[C@@H](C(=O)N[C@@H](CC(N)=O)C(=O)N[C@@H](CO)C(=O)N[C@@H](Cc2ccccc2)C(=O)N[C@@H](CCCNC(=N)N)C(=O)N[C@@H](Cc2ccc(O)cc2)C(=O)O)NC(=O)CNC(=O)[C@H](CC(C)C)NC(=O)CNC(=O)[C@H](CO)NC(=O)[C@H](CCC(N)=O)NC(=O)[C@H](C)NC(=O)CNC1=O [carperitide]
- in-hospital mortality ([12]; acute heart failure patients in Japan (Matsue et al. 2015)): increased in-hospital mortality

Molecule: nesiritide
- mortality [12, 13]: increased mortality
- renal function [12, 13]: worsening renal function
